Data on three molecules can be found in patent publication US20170173002A1, “Compositions and Methods for Treating an Infection” (CMPD LICENSING, LLC, priority 2015, published 2017).

The subject of test [1] is Histoplasma capsulatum. As to conditions: expected efficacy against Histoplasma capsulatum.
Test [2] relates to Cryptococcus neoformans. The test is described as follows: Expected efficacy of antifungal agents. As to conditions: expected efficacy against Cryptococcus neoformans.
The subject of test [3] is Coccidioides immitis. As to conditions: expected efficacy against Coccidioides immitis.
The subject of test [4] is Aspergillus flavus. The test is described as follows: Expected efficacy of antifungal agents. The settings on record: expected efficacy against Aspergillus flavus.
The subject of test [5] is Candida species. The test is described as follows: Expected efficacy of antifungal agents. As to conditions: expected efficacy against Candida species.
Test [6] has as its system Aspergillus fumigatus. The test is described as follows: Expected efficacy of antifungal agents. As to conditions: expected efficacy against Aspergillus fumigatus.
The subject of test [7] is Blastomyces dermatitidis. The test is described as follows: Expected efficacy of antifungal agents. As to conditions: expected efficacy against Blastomyces dermatitidis.
The test system of test [8] is gram-positive staphylococci and streptococci. As to conditions: background description of the drug; cited from earlier work.
For test [9], the system named is Klebsiella oxytoca. The test is described as follows: Expected efficacy of antibiotic agents. The settings on record: expected efficacy against Klebsiella oxytoca.
For test [10], the system named is Citrobacter diversus. The test is described as follows: Expected efficacy of antibiotic agents. As to conditions: expected efficacy against Citrobacter diversus.
In test [11] the test system is Salmonella typhi. In words: Expected efficacy of antibiotic agents. As to conditions: expected efficacy against Salmonella typhi.
Test [12] relates to Staphylococcus epidermidis. The test is described as follows: Expected efficacy of antibiotic agents. As to conditions: expected efficacy against Staphylococcus epidermidis.
In test [13] the test system is Enterobacter sakazakii. The test is described as follows: Expected efficacy of antibiotic agents. The settings on record: expected efficacy against Enterobacter sakazakii.
Test [14] concerns Shigella dysenteriae. In words: Expected efficacy of antibiotic agents. The settings on record: expected efficacy against Shigella dysenteriae.
The subject of test [15] is Proteus vulgaris. The test is described as follows: Expected efficacy of antibiotic agents. The settings on record: expected efficacy against Proteus vulgaris.
Test [16] relates to Chlamydia trachomatis. The test is described as follows: Expected efficacy of antibiotic agents. As to conditions: expected efficacy against Chlamydia trachomatis.
Test [17] concerns Yersinia pestis.
Test [18] has as its system Viridans group streptococci. The test is described as follows: Expected efficacy of antibiotic agents. As to conditions: expected efficacy against Viridans group streptococci.
Test [19] has as its system Haemophilus parainfluenzae. The test is described as follows: Expected efficacy of antibiotic agents. The settings on record: expected efficacy against Haemophilus parainfluenzae.
Test [20] relates to Rickettsiae.
Test [21] deals with Proteus mirabilis. In words: Expected efficacy of antibiotic agents. The settings on record: expected efficacy against Proteus mirabilis.
Test [22] deals with Enterococcus faecalis. In words: Expected efficacy of antibiotic agents. The settings on record: expected efficacy against Enterococcus faecalis.
Test [23] relates to Acinetobacter baumannii. The test is described as follows: Expected efficacy of antibiotic agents. As to conditions: expected efficacy against Acinetobacter baumannii.
In test [24] the test system is Vibrio cholerae. The test is described as follows: Expected efficacy of antibiotic agents. As to conditions: expected efficacy against Vibrio cholerae.
Test [25] relates to Enterococcus faecium. The test is described as follows: Expected efficacy of antibiotic agents. The settings on record: expected efficacy against Enterococcus faecium.
Test [26] deals with Mycoplasma pneumoniae. The test is described as follows: Expected efficacy of antibiotic agents. The settings on record: expected efficacy against Mycoplasma pneumoniae.
Test [27] relates to Providencia stuartii. In words: Expected efficacy of antibiotic agents. As to conditions: expected efficacy against Providencia stuartii.
The test system of test [28] is Acinetobacter calcoaceticus. In words: Expected efficacy of antibiotic agents. The settings on record: expected efficacy against Acinetobacter calcoaceticus.
The subject of test [29] is Methicillin resistant staph aureus (MRSA). The test is described as follows: Expected efficacy of antibiotic agents. As to conditions: expected efficacy against Methicillin resistant staph aureus (MRSA).
Test [30] concerns Chlamydia psittaci.
Test [31] deals with Legionella pneumophila.
For test [32], the system named is Escherichia coli. In words: Expected efficacy of antibiotic agents. The settings on record: expected efficacy against Escherichia coli.
In test [33] the test system is Streptococcus pneumoniae. The test is described as follows: Expected efficacy of antibiotic agents. The settings on record: expected efficacy against Streptococcus pneumoniae.
Test [34] concerns Bordetella pertussis. In words: Expected efficacy of antibiotic agents. The settings on record: expected efficacy against Bordetella pertussis.
Test [35] deals with Chlamydia pneumoniae. The test is described as follows: Expected efficacy of antibiotic agents. The settings on record: expected efficacy against Chlamydia pneumoniae.
The subject of test [36] is Enterobacter aerogenes. In words: Expected efficacy of antibiotic agents. As to conditions: expected efficacy against Enterobacter aerogenes.
The subject of test [37] is Shigella flexneri. In words: Expected efficacy of antibiotic agents. As to conditions: expected efficacy against Shigella flexneri.
For test [38], the system named is Corynebacterium urealyticum. The test is described as follows: Expected efficacy of antibiotic agents. The settings on record: expected efficacy against Corynebacterium urealyticum.
The test system of test [39] is Neisseria gonorrhoeae. The test is described as follows: Expected efficacy of antibiotic agents. As to conditions: expected efficacy against Neisseria gonorrhoeae.
Test [40] concerns Clostridium difficile. The test is described as follows: Expected efficacy of antibiotic agents. The settings on record: expected efficacy against Clostridium difficile.
For test [41], the system named is Shigella sonnei. The test is described as follows: Expected efficacy of antibiotic agents. As to conditions: expected efficacy against Shigella sonnei.
Test [42] concerns Enterobacter cloacae. In words: Expected efficacy of antibiotic agents. The settings on record: expected efficacy against Enterobacter cloacae.
For test [43], the system named is Klebsiella (Calymmatobacterium) granulomatis. The test is described as follows: Expected efficacy of antibiotic agents. As to conditions: expected efficacy against Klebsiella (Calymmatobacterium) granulomatis.
Test [44] concerns Staphylococcus aureus (MSSA). In words: Expected efficacy of antibiotic agents. As to conditions: expected efficacy against Staphylococcus aureus (MSSA).
In test [45] the test system is Clostridium perfringens.
Test [46] deals with Serratia marcescens. The test is described as follows: Expected efficacy of antibiotic agents. As to conditions: expected efficacy against Serratia marcescens.
In test [47] the test system is Morganella morganii. In words: Expected efficacy of antibiotic agents. The settings on record: expected efficacy against Morganella morganii.
The subject of test [48] is Pseudomonas fluorescens. In words: Expected efficacy of antibiotic agents. As to conditions: expected efficacy against Pseudomonas fluorescens.
Test [49] has as its system Streptococcus pyogenes. In words: Expected efficacy of antibiotic agents. As to conditions: expected efficacy against Streptococcus pyogenes.
Test [50] relates to Citrobacter freundii. In words: Expected efficacy of antibiotic agents. The settings on record: expected efficacy against Citrobacter freundii.
The subject of test [51] is Bacteroides fragilis. In words: Expected efficacy of antibiotic agents. The settings on record: expected efficacy against Bacteroides fragilis.
Test [52] has as its system Corynebacterium jeikeium. The test is described as follows: Expected efficacy of antibiotic agents. The settings on record: expected efficacy against Corynebacterium jeikeium.
Test [53] deals with Klebsiella pneumoniae. The test is described as follows: Expected efficacy of antibiotic agents. The settings on record: expected efficacy against Klebsiella pneumoniae.
Test [54] relates to Peptostreptococcus. The test is described as follows: Expected efficacy of antibiotic agents. The settings on record: expected efficacy against Peptostreptococcus.
Test [55] deals with Haemophilus influenzae. The test is described as follows: Expected efficacy of antibiotic agents. As to conditions: expected efficacy against Haemophilus influenzae.
Test [56] relates to Moraxella catarrhalis. In words: Expected efficacy of antibiotic agents. The settings on record: expected efficacy against Moraxella catarrhalis.
Test [57] concerns Diphtheroids. The test is described as follows: Expected efficacy of antibiotic agents. The settings on record: expected efficacy against Diphtheroids.
Test [58] deals with Neisseria meningitidis. In words: Expected efficacy of antibiotic agents. As to conditions: expected efficacy against Neisseria meningitidis.
Test [59] deals with Brucella species.
The test system of test [60] is Bartonella bacilliformis. The test is described as follows: Expected efficacy of antibiotic agents. The settings on record: expected efficacy against Bartonella bacilliformis.
The subject of test [61] is Providencia rettgeri. In words: Expected efficacy of antibiotic agents. As to conditions: expected efficacy against Providencia rettgeri.
Test [62] relates to Haemophilus ducreyi. In words: Expected efficacy of antibiotic agents. The settings on record: expected efficacy against Haemophilus ducreyi.
For test [63], the system named is Francisella tularensis.
For test [64], the system named is Campylobacter jejuni. In words: Expected efficacy of antibiotic agents. As to conditions: expected efficacy against Campylobacter jejuni.
In test [65] the test system is Shigella boydii. In words: Expected efficacy of antibiotic agents. The settings on record: expected efficacy against Shigella boydii.
Test [66] has as its system Streptococcus agalactiae. The test is described as follows: Expected efficacy of antibiotic agents. The settings on record: expected efficacy against Streptococcus agalactiae.
Test [67] has as its system Pseudomonas aeruginosa. The test is described as follows: Expected efficacy of antibiotic agents. The settings on record: expected efficacy against Pseudomonas aeruginosa.
In test [68] the test system is Acinetobacter lwoffii. The test is described as follows: Expected efficacy of antibiotic agents. The settings on record: expected efficacy against Acinetobacter lwoffii.

Regarding `OC(Cn1cncn1)(Cn1cncn1)c1ccc(F)cc1F` [Fluconazole], the Efficacy entry in test [1], in [2], in test [3], in test [4], in test [5] and in [6] was “yes” each time. Besides, the Efficacy result in [7] is recorded as “yes”.

Take `C/C(=C\C(=O)OCCCCCCCCC(=O)O)C[C@@H]1OC[C@H](C[C@@H]2O[C@H]2[C@@H](C)[C@@H](C)O)[C@@H](O)C1O` (some centres unmarked) [Mupirocin]: in test [8], the “activity against gram-positive staphylococci and streptococci” value is “excellent activity”.

For the molecule `CN[C@H](CC(C)C)C(=O)N[C@H]1C(=O)N[C@@H](CC(N)=O)C(=O)N[C@H]2C(=O)N[C@H]3C(=O)N[C@H](C(=O)N[C@H](C(=O)O)c4cc(O)cc(O)c4-c4cc3ccc4O)[C@H](O)c3ccc(c(Cl)c3)Oc3cc2cc(c3O[C@@H]2O[C@H](CO)[C@@H](O)[C@H](O)[C@H]2O[C@H]2C[C@](C)(N)[C@H](O)[C@H](C)O2)Oc2ccc(cc2Cl)[C@H]1O` [Vancomycin], the Efficacy entry in [9] is recorded as “no”; in [10] it was “no”; in [11], “no”; in [12], “yes”; in test [13] it was “no”; in test [14], “no”. Moreover, the Efficacy entry in test [15] is listed as “no”; in [16], “no”; in test [17], “no”; in test [18], “yes”; in [19] it was “no”; in test [20], “no”. Further, the Efficacy entry in test [21] is recorded as “no”; in [22], “yes”; in test [23], “no”; in [24], “no”; in test [25], “yes, not VRE”; in test [26], “no”. Besides, the Efficacy entry was “no” in test [27]; “no” in test [28]; “yes” in [29]; “no” in test [30]; “no” in test [31]; “no” in test [32]. Moreover, the Efficacy result in [33] is listed as “yes”; in test [34], “no”; in test [35] it was “no”; in test [36] it was “no”; in test [37], “no”; in test [38], “yes”. In addition, the Efficacy result in test [39] was “no”; in test [40], “yes”; in [41], “no”; in test [42], “no”; in test [43], “no”; in [44] it was “yes”. The Efficacy entry in test [45] is on record as “no”; in test [46], “no”; in test [47] it was “no”; in [48], “no”; in test [49], “yes”; in test [50], “no”. Also, the Efficacy entry in test [51] is given as “no”; in test [52], “yes”; in test [53], “no”; in test [54], “yes”; in test [55], “no”; in [56], “no”. The Efficacy result in test [57] is reported as “yes”; in test [58], “no”; in [59], “no”; in test [60] it was “no”; in [61] it was “no”; in test [62] it was “no”. Further, the Efficacy result in test [63] is reported as “no”; in test [64] it was “no”; in test [65] it was “no”; in [66], “yes”; in test [67], “no”; in test [68], “no”.
